≈ marks a conversion by molar mass, not a printed value. One block for each compound: values may come before it.
Columns and labels:
[1] = test system: Streptococcus pyogenes ATCC 19615; assay: in vitro antibacterial activity, agar dilution MIC (MHA and 5% sheep blood); assay type: cell-based; settings: 18-24 hours
Method: (§1) The compounds of the invention display antibacterial activity when tested by the agar incorporation method. The following minimum inhibitory concentrations (μg/mL) were obtained for representative compound of the invention, which is given below in the following table.
(§2) Inoculum preparation for Streptococcus pneumoniae, Moraxella catarrhalis, Streptococcus pyogenes strains and the method of MIC is an agar dilution method with MHA (Mueller Hinton agar) and 5% sheep blood. Inoculum was prepared by direct colony suspension in normal saline solution and adjusting the turbidity to 1 Mcfarland and subsequently diluting as per NCCLS guidelines in order to obtain 10^4 CFU/ml. The plates were incubated in CO2 at 37° C. for 18-24 hours.
(§3) The concentration showing no growth of the inoculated culture was recorded as the MIC. Appropriate ATCC standard strains were simultaneously tested and result recorded only when the MIC's against standard antibiotics were within the acceptable range.

[2] = test system: Moraxella catarrhalis ATCC 8176; assay: as above; assay type: cell-based; settings: 18-24 hours
Method: as §1, §2, §3

[3] = test system: Streptococcus pneumonia ATCC6303; assay: as above; assay type: cell-based, Streptococcus pneumoniae; settings: 18-24 hours
Method: as §1, §2, §3

[4] = test system: Streptococcus pneumonia ATCC AB34; assay: as above; assay type: cell-based, Streptococcus pneumoniae; settings: 18-24 hours
Method: as §1, §2, §3

[5] = test system: Staphylococcus aureus ATCC 25923; assay: in vitro antibacterial activity, agar dilution MIC; assay type: cell-based; settings: 35±2° C.
Method: as §1
(§4) Briefly, the compounds were dissolved in dimethylsulphoxide and doubling dilution of the compounds was incorporated into Muller Hilton agar before solidification. Inoculum for staphylococcus aureus and Enterococus strain was prepared by direct colony suspension in normal saline solution and adjusting the turbidity to 0.5 Macfarland turbidity and subsequently diluting as per NCCLS guidelines in order to obtain 10^4 CFU/spot. CFU/mL of few randomly selected cultures was performed. The cultures were replicated on agar plate using Denley's multipoint replicator. The agar plates were incubated for 18 hours-24 hours (24 hours for MRSA studies) at 35±2° C. Q.C. strains were also included in each run of the study.
as §3

[6] = test system: Methicilline Resistant Staphylococcus aureus ATCC562; assay: in vitro antibacterial activity, agar dilution MIC; assay type: cell-based; settings: 24 hours, 35±2° C.
Method: as §1, §4, §3

[7] = test system: Staphylococcus aureus ATCC 15187; assay: in vitro antibacterial activity, agar dilution MIC; assay type: cell-based; settings: 35±2° C.
Method: as §1, §4, §3

[8] = test system: Methicilline Resistant Staphylococcus aureus ATCC33; assay: in vitro antibacterial activity, agar dilution MIC; assay type: cell-based; settings: 24 hours, 35±2° C.
Method: as §1, §4, §3

[9] = test system: Enterococcus faecalis ATCC 29212; assay: in vitro antibacterial activity, agar dilution MIC; assay type: cell-based; settings: 35±2° C.
Method: as §1, §4, §3

[10] = test system: Vancomycin-resistant enterococci ATCC 6A; assay: in vitro antibacterial activity, agar dilution MIC; assay type: cell-based; settings: VRE ATCC 6A, 18-24 hours, 35±2° C.
Method: as §1, §4, §3

[11] = test system: Haemophilus influenzae 49247; assay: Haemophilus MIC, microbroth dilution method; assay type: cell-based; settings: H. influ. 49247, Mueller Hinton Broth cation adjusted + yeast extract + supplements
Method: as §1
The in vitro activity for Haemophilus MICs were performed by using Microbroth dilution method as follows: Media used: Mueller Hinton Broth (MHB-Difco)−Cation adjusted+5 grams per liter Yeast extract+supplements
Preparation of drug concentrations in 96 well microtitre plates were done as per the NCCLS method. Inoculum was prepared by direct colony suspensions in normal saline and adjusted to 1 McFarland turbidity and subsequently diluted in broth 100 times as per NCCLS guidelines in order to obtain 10^5 […].
as §3

SMILES: CC(=O)NCC1CN(c2ccc(N3CC4NCCOC4C3)c(F)c2)C(=O)O1 (stereo not shown) [Compound No. 05, N-[(3-{3-fluoro-4-[(7aE)-hexahydropyrrolo[3,4-b][1,4]oxazin-6(2H)-yl]phenyl}-2-oxo-1,3-oxazolidin-5-yl)methyl]acetamide]
minimum inhibitory concentration, S. pyogenes 19615 ([1]; Strep. pyog. ATCC 19615, CO2, 37° C.): 2 µg/mL (≈ 5.29 µM)
minimum inhibitory concentration, M. catt 8176 ([2]; M. catt. ATCC 8176, CO2, 37° C.): >16 µg/mL
minimum inhibitory concentration, S. pneum 6303 ([3]; CO2, 37° C.): 2 µg/mL (≈ 5.29 µM)
minimum inhibitory concentration, S. pneum AB34 ([4]; CO2, 37° C.): 2 µg/mL (≈ 5.29 µM)
minimum inhibitory concentration, S. aureus 25923 ([5]; S. aureus ATCC 25923, 18-24 hours): 8 µg/mL (≈ 21.1 µM)
minimum inhibitory concentration, MRSA 562 [6]: 4 µg/mL (≈ 10.6 µM)
minimum inhibitory concentration, S. aureus 15187 ([7]; S. aureus ATCC 15187, 18-24 hours): 8 µg/mL (≈ 21.1 µM)
minimum inhibitory concentration, MRSA 33 [8]: 4 µg/mL (≈ 10.6 µM)
minimum inhibitory concentration, E. faecalis 29212 ([9]; Ent. faecalis ATCC 29212, 18-24 hours): 2 µg/mL (≈ 5.29 µM)
minimum inhibitory concentration, VRE 6A [10]: 2 µg/mL (≈ 5.29 µM)
minimum inhibitory concentration, H. inf 49247 [11]: 8 µg/mL

MIC ([1]; Streptococcus pyogenes, ATCC19615, Strep. pyog. ATCC 19615, CO2, 37° C., read-out: minimum inhibitory concentration, S. pyogenes 19615): 2 µg/mL (≈ 5.93 µM)
MIC ([2]; Moraxella catarrhalis, ATCC8176, M. catt. ATCC 8176, CO2, 37° C., read-out: minimum inhibitory concentration, M. catt 8176): 2 µg/mL (≈ 5.93 µM)
MIC ([3]; Streptococcus pneumoniae, S. pneum ATCC6303, CO2, 37° C., read-out: minimum inhibitory concentration, S. pneum 6303): 1 µg/mL (≈ 2.96 µM)
MIC ([4]; Streptococcus pneumoniae, ATCCAB34, S. pneum ATCC AB34, CO2, 37° C., read-out: minimum inhibitory concentration, S. pneum AB34): 2 µg/mL (≈ 5.93 µM)
MIC ([5]; Staphylococcus aureus, ATCC25923, S. aureus ATCC 25923, 18-24 hours, read-out: minimum inhibitory concentration, S. aureus 25923): 2 µg/mL (≈ 5.93 µM)
MIC ([6]; Staphylococcus aureus, ATCC 562 / MRSA, read-out: minimum inhibitory concentration, MRSA 562): 2 µg/mL (≈ 5.93 µM)
MIC ([7]; Staphylococcus aureus, ATCC15187, S. aureus ATCC 15187, 18-24 hours, read-out: minimum inhibitory concentration, S. aureus 15187): 2 µg/mL (≈ 5.93 µM)
MIC ([8]; Staphylococcus aureus, ATCC 33 / MRSA, read-out: minimum inhibitory concentration, MRSA 33): 2 µg/mL (≈ 5.93 µM)
MIC ([9]; Enterococcus faecalis, ATCC29212, Ent. faecalis ATCC 29212, 18-24 hours, read-out: minimum inhibitory concentration, E. faecalis 29212): 2 µg/mL (≈ 5.93 µM)
MIC ([10]; Enterococcus, read-out: minimum inhibitory concentration, VRE 6A): 2 µg/mL (≈ 5.93 µM)
MIC ([11]; Haemophilus influenzae, read-out: minimum inhibitory concentration, H. inf 49247): 8 µg/mL
SMILES: CC(=O)NC[C@H]1CN(c2ccc(N3CCOCC3)c(F)c2)C(=O)O1 [Linezolid]

Source: patent US7592335B2, “Oxazolidinone derivatives as antimicrobials” (Ranbaxy Laboratories Limited, priority 2005, dated 2009)
